Values of other authors, collected in patent publication US12648892B2, “Emergency eye wash” (Lebrun Labs LLC, priority 2024, dated 2026).

Key:
eye = eye damage classification; cited from earlier work
[1] = most extreme pH value found for each chemical; includes diluted chemicals; cited from earlier work

Compound	in vivo GHS (eye)	pH [1]
CSCCC(NC(C)=O)C(=O)O (racemic) [compound 88]	1	
O=C1C2CC=CCC2C(=O)N1SC(Cl)(Cl)Cl (stereo not shown) [compound 1]	1	
CC(C)(C)CC(C)(C)c1ccc(O)cc1 [compound 2]	1	
CCN(CC)CCCC(C)Nc1c2ccc(Cl)cc2nc2ccc(OC)cc12 (stereo not shown) [compound 3]	1	
O=C([O-])C(=O)[O-].[Na+].[Na+] [compound 4]	1	
CCCCCCCCCCCCCCCC[N+](C)(C)C.[Cl-] [compound 5]	1	
O=C(O)CO [compound 6]	1	
CCCCCCCCCCCCOS(=O)(=O)[O-].[Na+] [compound 7]	1	
CCCCCCCCCCCC(=O)O [compound 8]	1	
CCC[CH2][Sn]([CH2]CCC)([CH2]CCC)[O][Sn]([CH2]CCC)([CH2]CCC)[CH2]CCC [compound 9]	1	
CC(=O)O [compound 11]	1	
O=C([O-])c1ccccc1O.[Na+] [compound 13]	1	
CCCCO [compound 15]	1	
OCc1ccccc1 [compound 16]	1	
CC(O)C(=O)O (stereo not shown) [compound 17]	1	
Nc1cccc(N)c1 [compound 18]	1	
c1ccncc1 [compound 20]	1	
CC(CN1c2ccccc2Sc2ccccc21)N(C)C.Cl (stereo not shown) [compound 21]	1	
CCCCCCCCCCCC[N+](C)(C)CCOc1ccccc1.[Br-] [compound 26]	1	
CCCCCCCCCCCCCCCC[N+](C)(C)C.[Br-] [compound 28]	1	
O=C(O)c1ccccc1 [compound 32]	1	
O=C([O-])c1c(Cl)c(Cl)c(Cl)c(Cl)c1-c1c2cc(Br)c(=O)c(Br)c-2oc2c(Br)c([O-])c(Br)cc12.[Na+].[Na+] [compound 34]	1	
CCCCCCCCCCCCCCCC[n+]1ccccc1.O.[Cl-] [compound 35]	1	
CC(C=O)Cc1ccc(C(C)(C)C)cc1 (stereo not shown) [compound 38]	1	

Compound	in vivo GHS (eye)	pH [1]
CCCCCCCCCCCCCCCCCC[N+](C)(C)CCCCCCCCCCCCCCCCCC [compound 39]	1	5.5
C=CC(=O)OCCOCCOCCOCCOC(=O)C=C [compound 42]	1	5.2
O=C(O)Cc1cccc2ccccc12 [compound 43]	1	5.0
CCCCOCCO [compound 46]	1	7.0
OC1CCCCC1 [compound 47]	1	6.5
C1CCOC1 [compound 48]	1	8.0
O=C(O)CCC(=O)C(=O)O [compound 49]	1	1.5
Nc1ccc(F)cc1 [compound 50]	1	7.4
CC(C)(O)C(=O)O [compound 51]	1	1.0
CCO[Si](CCCN)(OCC)OCC [compound 52]	1	11.0
CCN(CC)CCO [compound 53]	1	11.5
c1c[nH]cn1 [compound 54]	1	10.5
CCCCCCCCN [compound 55]	1	11.8
[Na+].[OH-] [compound 56]	1	14.0
O=C(O)C(Cl)(Cl)Cl [compound 57]	1	<1.0
CCCCC(CC)COC(=O)CC(C(=O)OCC(CC)CCCC)S(=O)(=O)[O-].[Na+] (stereo not shown) [compound 58]	1	6.5
CCCCCCCCCCCC(=O)[O-].[K+] [compound 59]	1	10.5
CCCCCCCCCCCCCCCCCC[N+](C)(C)C [compound 60]	1	4.2
CCCCCCCCCCCC[N+](C)(C)[O-] [compound 62]	1	9.0
O=C(O)c1ccc(O)cc1O [compound 64]	1	3.0
O=S(=O)([O-])O.[Na+] [compound 65]	1	<1.0
CCCCCCCC[N+](CCCCCCCC)(CCCCCCCC)CCCCCCCC.[Br-] [compound 66]	1	3.9
CC(C)(O)CCC(C)(C)O [compound 68]	1	
OCCCCCCCCCl [compound 69]	1	

Compound	in vivo GHS (eye)	pH [1]
CCCCCCCCCCCC[N+](C)(C)CC(O)CS(=O)(=O)[O-] (stereo not shown) [compound 71]	1	
C#CC(C)(O)CC (stereo not shown) [compound 76]	1	
C=CC(=O)OCCOC [compound 79]	1	
O=S(=O)(Cl)c1ccccc1 [compound 80]	1	
C=CC(=O)OCCO [compound 81]	1	
Oc1ccc(Cl)cc1Cc1ccccc1 [compound 82]	1	
CCOC(=O)C(C)(C)O [compound 83]	1	
CCCCCCCCCCCCCCCC[n+]1ccccc1.[Br-] [compound 84]	1	
O=C(OC(C(=O)O)C(OC(=O)c1ccccc1)C(=O)O)c1ccccc1 (stereo not shown) [compound 87]	1	
O=c1[nH]sc2ccccc12 [compound 89]	1	
O=S1(=O)OC(c2cc(Br)c(O)c(Br)c2)(c2cc(Br)c(O)c(Br)c2)c2c(Br)c(Br)c(Br)c(Br)c21 [compound 90]	1	
C[Si](C)(CCCN)O[Si](C)(C)CCCN [compound 91]	1	
Cc1ccccc1NC(=N)NC(=N)N [compound 92]	1	
COC(=O)CS [compound 93]	1	
CCC(C)(C)C(=O)O [compound 94]	1	
CO[Si](CCCNCCN)(OC)OC [compound 95]	1	
CC(C)(C)c1ccc(O)c(O)c1 [compound 96]	1	
Oc1ccc2ccc(O)cc2c1 [compound 99]	1	
Cc1c(O)cccc1O [compound 100]	1	
CCCOC(=O)C(C)O (stereo not shown) [compound 101]	1	
[Na+].c1nc[n-]n1 [compound 105]	1	
N#CSc1ccc(N)c([N+](=O)[O-])c1 [compound 106]	1	
O=C=Nc1ccc(Cl)c(Cl)c1 [compound 107]	1	
CCN(CC)CCC#N [compound 108]	1	
